The structures appear in SMILES notation.

The test system of this assay is M2 of influenza viruses A (H1N1). As to conditions: almost all the ORVs.

For the compound `NC12CC3CC(CC(C3)C1)C2` [amantadine], the “susceptibility by M2 sequencing (in words)” value was “sensitive”.

For the origin of these results see PMC3086245 (Emerging Infectious Diseases, 2010).
